Where two headings read alike, the source gives them in different places.
What was measured:
[1] = target: T1, RORγ (Homo sapiens, UniProt P51449); assay: Jurkat cell luciferase assay (human IL17 promoter reporter, RORγt overexpression); assay type: cell-based; conditions: mean pIC50; detection limit of the assay 5
T1 construct: expressed in transfected cells
T1 sequence (P51449 1-497 isoform P51449-2): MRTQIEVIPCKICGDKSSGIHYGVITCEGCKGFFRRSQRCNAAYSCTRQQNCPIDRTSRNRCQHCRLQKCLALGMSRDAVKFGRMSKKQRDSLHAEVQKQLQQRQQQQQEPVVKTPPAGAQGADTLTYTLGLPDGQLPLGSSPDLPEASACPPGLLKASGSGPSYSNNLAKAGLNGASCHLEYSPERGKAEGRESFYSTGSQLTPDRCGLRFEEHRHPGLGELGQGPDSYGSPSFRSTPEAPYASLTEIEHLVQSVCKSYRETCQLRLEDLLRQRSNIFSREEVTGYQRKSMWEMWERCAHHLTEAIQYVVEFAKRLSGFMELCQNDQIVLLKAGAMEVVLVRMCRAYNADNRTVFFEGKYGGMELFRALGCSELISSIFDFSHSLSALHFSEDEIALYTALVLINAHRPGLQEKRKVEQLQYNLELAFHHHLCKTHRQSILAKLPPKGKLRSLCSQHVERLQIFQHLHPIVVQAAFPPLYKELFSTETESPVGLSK
Source text: RORγ is known to bind to a CNS (conserved non-coding sequences) enhancer element in the IL17 promoter. In this assay, RORγ activity is indirectly assessed using a luciferase reporter construct which contains the human IL17 promoter having the RORγ-specific CNS enhancer element. Inhibition of RORγ activity by a compound will result in a decrease in luciferase activity of Jurkat cells transfected with the reporter construct.
. For the 1.1 Kb fragment, PCR was used to amplify human IL17 proximal promoter region from genomic DNA of 293T cells using primers as follows: forward primer, 5′-[…]-3′ (SEQ ID NO. 4) (Xhol site is underlined) and reverse primer, 5′-[…]-3′ SEQ ID NO. 5) (HindIII site is underlined). The 1.1 kb DNA bands were excised, purified, and inserted into pMD19-T Simple Vector (Takara). After DNA sequencing confirmation, the 1.1 kb DNA was digested with XhoI and HindIII and inserted into XhoI/HindIII sites of pGL4.31[luc2P/GAL4UAS/Hygro] (Promega) to generate the pIL17-lkb-luc reporter construct. For the 1.9 Kb fragment, PCR was used to amplify human IL17 promoter region from genomic DNA using primers as follows: forward primer, 5′-[…]-3′ (SEQ ID NO. 6) (KpnI site is underlined) and reverse primer, 5′-[…]-3′ (SEQ ID NO. 7)(XhoI site is underlined). The resulting 1.9 kb DNA bands were excised, gel purified, and cloned into a pMD19-T Simple Vector (Takara). […] The 1.9 kb DNA fragment was released by double digestion with KpnI and XhoI and inserted into pIL17-lkb-luc to generate the luciferase reporter plasmid “pIL17-3kb-CNS-luc.” To overexpress RORγt, the full-length cDNA of human RORγt identical to the published sequence NM13 001001523 was cloned into pcDNA3.1 at the KpnI-NotI cloning sites to generate the RORγt overexpression plasmid “CDNA3.1DhRORγ49-8”. […]
Compounds were dissolved in DMSO at three concentrations, 10 mM, 400 uM and 16 uM, and were dispensed into 384-wells assay plate at 40 nl, 12.5 nl, 5 nl respectively. The volume was adjusted with pure DMSO to a give a final uniform volume of 40 nl Jurkat cells described above were counted and centrifuged. […]

[2] = system: Mouse CD4+ cells; assay: Th17 cell differentiation assay (IL-17 ELISA); assay type: cell-based; conditions: table with percutaneous study
Protocol: Mouse CD4+cells were purified using the CD4+ T Cell Isolation II Kit according to manufacturer's instructions (Miltenyi Biotec). 96 well plates were pre-coated with anti-mCD3 antibody. Un-coated wells were used as controls. CD4+ Cells were resuspended in RPMI 1640 complete medium and were added to the 96-well plates. Cytokine cocktail and the compound were then added to the wells. Antibodies and cytokines (all from R&D Systems) used in the assay were selected from the following: anti-mCD3; anti-mCD28; anti-mIFNγ; anti-mIL4; mIL-6; mIL-23; mIL-1β; hTGF-β1. The culture was incubated at 37° C. for 3 days and supernatants were collected for ELISA. The IL-17 ELISAs were performed according to manufacturer's instructions (R&D Systems). The results were analyzed using Prism software with non-linear regression to determine pIC50.

[3] = In vitro percutaneous study (Franz diffusion cells, aqueous cream); assay type: in vitro ADME, human; conditions: 1.0% w/w in aqueous cream pH=6, 5 mg/cm^2, human skin from three donors
Source text: The in vitro percutaneous study is aimed to predict the level of percutaneous penetration obtained for a compound in a topical formulation for psoriasis. This assay coupled with the intrinsic potency of the compound are used to predict the likelihood of success of a compound to engage the target. The higher the ratio of the percutaneous penetration to the intrinsic potency, the higher the ratio of local skin concentration to the intrinsic potency and therefore the higher the chance of a compound to engage the target in a topical formulation.
The compounds were manufactured in a modified aqueous cream at pH=6.
The study was conducted with dermatomed abdominal human skin sourced from three skin donors using 2 cm2 Franz diffusion cells. The receiving fluid consisted of Bovine serum albumin (4% w/v) in 0.1% w/v sodium azide in Phospate Buffer Saline and was heated at 37° C. in order to obtain 32° C. at the skin surface. The cream formulation was applied on the donor side at a 10 mg dose, i.e. 5 mg/cm^2. The samples taken at the following time points: t=0, 3, 6, 9 and 24 h. The receiver samples were then assayed using a method based upon protein precipitation with acetonitrile followed by LC/MS/MS analysis. The percutaneous flux (in ng/cm^2/hr) was determined using the individual API (in a multiple composition) that had permeated into the receiver compartment over 24 hrs per cm^2.

Cc1cnc(C(=O)Nc2cc(F)cc(CN3CCN(C(=O)C4CCCC4)[C@@H](C)C3)c2C)cn1 [Example 36, (S)-N-(3-((4-(cyclopentanecarbonyl)-3-methylpiperazin-1-yl)methyl)-5-fluoro-2-methylphenyl)-5-methylpyrazine-2-carboxamide]
IC50 [1]: > 10 µM

Cc1ccc(C(=O)Nc2cc(F)cc(CN3CCN(C(=O)CC4CCC4)[C@@H](C)C3)c2C)cn1 [Example 163, (S)-N-(3-((4-(2-cyclobutylacetyl)-3-methylpiperazin-1-yl)methyl)-5-fluoro-2-methylphenyl)-6-methylnicotinamide]
IC50 ([2]; read-out: Th17 cell differentiation assay IC50): 0.0114 mg/L | IC50 ([2]; read-out: Th17 cell differentiation assay pIC50 (converted)): 0.0251 µM | Flux over 24 hrs [3]: 7.73 ng/cm^2/hr
